# In US20200237852A1, “Small Molecule Enhancers of Paneth Cell Function and Differentiation” (Massachusetts Institute of Technology, priority 2019, published 2020):
# What was measured:
# [1] = test system: ISC-enriched organoids in ENR+CD; assay: 384-well secondary screen in ENR+CD incl. early vs. full treatment, secreted LYZ (LYZ.NS, LYZ.S); assay type: cell-based, C57BL/6 mice; settings: ENR+CD, across all doses
# Text: We again assessed treatment effect size with replicate SSMD (using a difference between well replicates and median assay value for all same-plate control wells—see Materials and Methods, High-throughput screening: 384-well secondary screen format and early vs. full treatment analysis) and hits were considered statistically validated by an SSMD greater than the false-positive-derived cutoffs (βα1=0.89 for 8 replicates with alpha=0.05; see Materials and Methods, High-throughput screening: 384-well secondary screen format and early vs. full treatment analysis) for both LYZ.NS and LYZ.S assays (FIG. 7A). Per this new cutoff, 10 dose-treatment combinations corresponding to 7 small molecules were chosen as hits, with every passing dose-treatment having a greater than 0 ATP effect size.
# For 384-well plate high-throughput screening, ISC-enriched organoids were passaged and split to single cells with TyrpLE (Thermo Fisher Scientific) and cultured for 2-3 days in ENR+CVY prior to transfer to a “2.5-D” 384-well plate culture system. To prepare for “2.5D” plating, cell-laden Matrigel and media were homogenized via mechanical disruption and centrifuged at 300 g for 3 min at 4° C. Supernatant was removed and the pellet washed and spun in basal culture medium repeatedly until the cloudy Matrigel above the cell pellet was gone. On the final wash, pellet was resuspended in basal culture medium, the number of organoids counted, and the cell pellet was resuspended in ENR+CD medium at ˜7 clusters/μL. 384-well plates were first filled with 10 μL of 70% Matrigel (30% basal media) coating in each well using a Tecan Evo 150 Liquid Handling Deck, and allowed to gel at 37° C. for 5 minutes. Then 30 μL of cell-laden media was plated at the center of each well of 384-well plates with the liquid handler, and the plates were spun down at 50 g for 1 minute to embed organoids on the Matrigel surface. Compound libraries were pinned into prepped cell plates using 50 nL pins into 30 μL media/well. Cells were cultured at 37° C. with 5% CO2 for six days in ENR+CD medium supplemented with the tested compounds with a media change at three days. On day six, lysozyme secretion and cell viability were assessed using Lysozyme Assay Kit (EnzChek) and CellTiter-Glo 3D Cell Viability Assay (Promega), respectively, according to the manufacturers' protocols. Briefly, screen plates were washed 3× with FluoroBrite basal media (2 mM GlutaMAX and 10 mM HEPES in FluoroBrite DMEM (Thermo Fisher Scientific)) using a BioTek 406 plate washer with 10 min incubations followed by a 1 min centrifugation at 200 g to settle media between washes. After removal of the third wash, 30 μL of non-stimulated FluoroBrite basal media was added to each screen well using a Tecan Evo 150 Liquid Handling Deck from a non-stimulated treatment master plate, and plates were incubated for 30 min at 37° C. After 30 minutes, the top 15 μL of media from each well of the screen plate was transferred to a non-stimulated LYZ assay plate containing 15 μL of 20× DQ LYZ assay working solution using a Tecan Evo 150 Liquid Handling Deck. The non-stimulated LYZ assay plate was covered, shaken for 10 min, incubated for 50 min at 37° C., then fluorescence measured (shake 10 s; […]/518 nm) using a Tecan M1000 Plate Reader. After the media transfer to the non-stimulated LYZ assay plate, the remaining media was removed from the screen plate and 30 μL of Stimulated FluoroBrite basal media (supplemented with 10 μM CCh) was added to each screen well using a Tecan Evo 150 Liquid Handling Deck from a stimulated treatment master plate, and plates were incubated for 30 min at 37° C. After 30 minutes, the top 15 μL of media from each well of the screen plate was transferred to a stimulated LYZ assay plate containing 15 μL of 20× DQ LYZ assay working solution using a Tecan Evo 150 Liquid Handling Deck. […]
# [2] = test system: conventional organoid (ENR); assay: 384-well screen in conventional organoid (ENR), secreted LYZ (LYZ.NS, LYZ.S); assay type: cell-based, C57BL/6 mice; settings: 6-day ENR differentiation compared with ENR+CD
# [3] = test system: 6-day ENR+CD cells; assay: Cell pellet ATP after long-term (48-hour) treatment; assay type: cell-based, murine; settings: low doses
# Text: (§1) We next sought to profile potential long-term modulators of differentiated PC survival and antimicrobial secretion, as well as gauge the interaction between long-term modulators and short-term induced secretion (via CCh). To accomplish this, we employed a similar set up as in the short-term experiment, with the exception that upon plating day 4 ENR+CD cells we additionally supplemented in either MDP, LPS, TNF-α, or IFN-γ for the additional 2 days in culture and assayed all conditions for both basal and CCh-induced LYZ secretion over 3 hours on day 6 of differentiation (FIG. 3A). […] Additionally, we see that the long-term addition reduces CCh-induced secretory function relative to the untreated control for all agents (FIG. 3D).
# Small intestinal crypts were isolated from C57BL/6 mice of both sexes, aged between three to six months in all experiments. Crypts were then cultured in a Matrigel culture system. Briefly, crypts were resuspended in basal culture medium (Advanced DMEM/F12 with 2 mM GlutaMAX and 10 mM HEPES; Thermo Fisher Scientific) at a 1:1 ratio with Corning™ Matrigel™ Membrane Matrix—GFR (Fisher Scientific) and plated at the center of each well of 24-well plates. Following Matrigel polymerization, 500 μL of small intestinal crypt culture medium (basal media plus 100× N2 supplement, 50×B27 supplement; Life Technologies, 500× N-acetyl-L-cysteine; Sigma-Aldrich) supplemented with growth factors EGF—E (50 ng/mL, Life Technologies), Noggin—N (100 ng/mL, PeproTech) and R-spondin 1—R (500 ng/mL, PeproTech) and small molecules CHIR99021—C (3 μM, LC Laboratories) and valproic acid—V (1 mM, Sigma-Aldrich) was added to each well. ROCK inhibitor Y-27632—Y (10 μM, R&D Systems) was added for the first 2 days of culture. Cells were cultured at 37° C. with 5% CO2, and cell culture medium was changed every other day. After 6 days of culture, crypt organoids were isolated from Matrigel by mechanical dissociation. To expand enriched ISCs (ENR+CV/Y) or Paneth Cells (ENR+CD), organoids were cultured in 24-well plates, suspended in 40 uL 3-D gels (50-50 GFR MATRIGEL®, Basal culture media), with 500 uL of crypt media supplemented with necessary growth factors and small molecules. […]
# For 96-well plate high-throughput screening, 4-day differentiated (ENR+CD) cell clusters in 3D Matrigel were transferred to a “2.5-D” 96-well plate culture system. […] On the last repeat, pellet was resuspended in basal culture medium, the number of cell clusters counted, and centrifuged at 300 g for 3 min at 4° C. […] At end time points (following 2 days in culture and 3 hours of stimulation), lysozyme secretion and cell viability were assessed using Lysozyme Assay Kit and CellTiter-Glo 3D Cell Viability Assay (Promega), respectively, according to the manufacturers' protocols. […]
# [4] = test system: 6-day ENR+CD cells; assay: Long-term (48-hour) modulators of basal and CCh-induced LYZ secretion; assay type: cell-based, murine; settings: 48-hour treatment, CCh-induced secretion over 3 hours on day 6
# Text: as §1
# Small intestinal crypts were isolated from C57BL/6 mice of both sexes, aged between three to six months in all experiments. Crypts were then cultured in a Matrigel culture system. Briefly, crypts were resuspended in basal culture medium (Advanced DMEM/F12 with 2 mM GlutaMAX and 10 mM HEPES; Thermo Fisher Scientific) at a 1:1 ratio with Corning™ Matrigel™ Membrane Matrix—GFR (Fisher Scientific) and plated at the center of each well of 24-well plates. Following Matrigel polymerization, 500 μL of small intestinal crypt culture medium (basal media plus 100× N2 supplement, 50×B27 supplement; Life Technologies, 500× N-acetyl-L-cysteine; Sigma-Aldrich) supplemented with growth factors EGF—E (50 ng/mL, Life Technologies), Noggin—N (100 ng/mL, PeproTech) and R-spondin 1—R (500 ng/mL, PeproTech) and small molecules CHIR99021—C (3 μM, LC Laboratories) and valproic acid—V (1 mM, Sigma-Aldrich) was added to each well. ROCK inhibitor Y-27632—Y (10 μM, R&D Systems) was added for the first 2 days of culture. Cells were cultured at 37° C. with 5% CO2, and cell culture medium was changed every other day. After 6 days of culture, crypt organoids were isolated from Matrigel by mechanical dissociation. To expand enriched ISCs (ENR+CV/Y) or Paneth Cells (ENR+CD), organoids were cultured in 24-well plates, suspended in 40 uL 3-D gels (50-50 GFR MATRIGEL®, Basal culture media), with 500 uL of crypt media supplemented with necessary growth factors and small molecules. ROCK inhibitor (Y) was added for the first two days of ISC culture following reconstitution from cryopreservation or trypLE passaging to single cells. Cell culture medium was changed every other day. After 4 days of culture in ENR+CV, cell clusters were differentiated to PCs under the ENR+CD condition for 96-well short and long-term screens. For 384-well differentiation screens, 4-day ENR+CV clusters were passaged to single cells using trypLE, replated and expanded another 3 days in 3-D ENR+CVY and then passaged directly into screens.
# For 96-well plate high-throughput screening, 4-day differentiated (ENR+CD) cell clusters in 3D Matrigel were transferred to a “2.5-D” 96-well plate culture system. Briefly, cell culture gel and medium were homogenized via mechanical disruption and centrifuged at 300 g for 3 min at 4° C. […] On the last repeat, pellet was resuspended in basal culture medium, the number of cell clusters counted, and centrifuged at 300 g for 3 min at 4° C. […] At end time points (following 2 days in culture and 3 hours of stimulation), lysozyme secretion and cell viability were assessed using Lysozyme Assay Kit and CellTiter-Glo 3D Cell Viability Assay (Promega), respectively, according to the manufacturers' protocols. […]
molecule,measurement,setting,value
COc1ccc(C2CNC(=O)C2)cc1OC1CCCC1 (centres unmarked) [Rolipram],"ATP-normalized LYZ assays (LYZ.NS/ATP, LYZ.S/ATP), early versus full treatment",[1],do not see a trend or significant difference
CCc1c(C(=O)C(N)=O)c2c(OCC(=O)O)cccc2n1Cc1ccccc1 [Varespladib],mean fold change in LYZ.NS/ATP and LYZ.S/ATP (LYZ secretion per cell) in ENR,[2],minimal effects in the ENR-only system
TNF-α,SSMD effect size of increase in cell number (ATP),[3],weak
same,change in cell number (ATP rel. to ENR+CD),[3],apparent increases in cell number
same,effect size of reduction of CCh-induced secretory function relative to untreated control,[4],weak
